Tests used:
MCF-7 cells [1] = experiment: Clonogenic assay, MCF-7 cells; assay type: cell-based, human; conditions: 24 h drug, calphostin C light-activated 2 h, read-out: IC50 (concentration required to kill or inhibit the growth of 50% of cells)
Experimental: The breast cancer cell line MCF-7 (lot HTB-22) was obtained from the American […] (ATCC) and maintained in Dulbecco's H21 medium (MEM) supplemented with 10% Fetal Bovine Serum (FBS) (HyClone, Logan, Utah) in a humidified atmosphere containing 5% CO2 at 37° C. To establish drug resistant cell lines, MCF-7 cells were grown in the presence of either paclitaxel or doxorubicin, beginning at a concentration 1000-fold below that required to kill 50% of the cells (the IC50). The drug concentration was increased 3-fold every two weeks (two passages), with an aliquot of the cells removed for storage in liquid nitrogen before each increase in concentration. Dose escalation continued until all cells died, after which the cells able to tolerate the highest concentration of drug were thawed for subsequent study. In this way, paclitaxel-resistant (MCF-7TAX) and doxorubicin-resistant (MCF-7DOX) cell lines were established. The IC50 for each drug was determined using a clonogenic assay as outlined below. The drug resistant cells were kept in culture in the presence of the maximally tolerated drug dose. Before each experiment, the cell lines were grown for two days in the absence of drug after which fresh medium containing either calphostin C (Sigma Laboratories, Oakville, ON), doxorubicin (Adriamycin PFS®, USP, Mississauga, ON) or paclitaxel (Taxol, Bristol-Myers Squibb, Montreal, QC) was added at the concentrations indicated.
The sensitivity of MCF-7, MCF-7TAX and MCF-7DOX cells to calphostin C, paclitaxel or doxorubicin was determined using a clonogenic assay. Briefly, 2.5×10^5 cells were seeded into 25 cm^2 tissue culture flasks in Dulbecco's H21 medium supplemented with 10% FBS. The cells were allowed to grow overnight, after which the medium was removed and replaced with medium containing varying concentrations of paclitaxel, doxorubicin, or calphostin C (after 2 hours of light exposure to activate the molecule). […] The colonies present in 5 randomly selected fields were then counted by visual inspection. […]

MCF-7DOX cells [2] = experiment: Microscopic cell morphology, MCF-7DOX; assay type: cell-based, human; conditions: data not shown
Experimental: For microscopic observation, cells were seeded onto standard glass coverslips in 10 cm tissue culture plates with 10 ml of H21 medium and grown for 2 days until 40-50% confluence was obtained. After treatment with paclitaxel, doxorubicin or calphostin C, the cells on the glass coverslips were washed twice with PBS (2.7 mM KCl, 1.0 mM KH2PO4, 137 mM NaCl, 10 mM Na2HPO4, pH 7.4) and stained with acridine orange/ethidium bromide (each at 4 μg/ml in PBS) for 10 min at 37° C.. The coverslips were then washed three times in PBS and mounted onto standard glass slides for morphological evaluation. For propidium iodide (PI) staining, the cells on coverslips were washed twice with PBS and fixed in methanol (cooled to −20° C.) for 20 min. Thirty μl of propidium iodide (PI) staining solution (100 μg/ml PI, 0.1% sodium citrate, 100 μg/ml RNase A and 0.3% Nonidet P-40) were then applied to the coverslips for 5 min. […] The cells were then examined using a Zeiss Axiovert 100 inverted fluorescence microscope. […] For each sample, the number of dead cells was determined by visualization after ethidium bromide staining, whereby only dead cells which have lost membrane integrity allow entry of cell-impermeable ethidium bromide into cells to complex with DNA and induce bright red fluorescence. […] The images were recorded and overlayed using Northern Eclipse software (Empix Imaging Inc., Mississauga, ON).

MCF-7 cells [3] = experiment: Flow cytometric sub-G1 DNA content, MCF-7; assay type: cell-based, human; conditions: 100 nM calphostin C, 2 h light
Experimental: (§1) For flow cytometric analysis, cells at about 50% to 60% confluence were released from their flasks by trypsin treatment and washed with PBS. After centrifugation at 1000 rpm for 5 min, cells were then fixed by resuspension in 75% ethanol for 2 hours, collected by centrifugation, and resuspended in PI staining solution (see above) for 1 h. For each sample, approximately 2×10^4 cells were analyzed using a Beckman Coulter Epics® Elite flow cytometer. Fluorescence intensity upon stimulation with an argon-ion laser at 488 nm was measured using the PMT4 channel (625DL filter) and plotted against cell number. The percentage of cells with a sub-G1 DNA content was determined by the flow cytometer, adjusting the gates such that only cells with a fluorescence lower than the peak for untreated cells in G1 are counted (see FIG. 4).

MCF-7DOX cells [4] = experiment: Flow cytometric sub-G1 DNA content, MCF-7DOX; assay type: cell-based, human; conditions: 100 nM calphostin C
Experimental: as §1

[5] = test system: human 293T embryonic kidney cells; experiment: Death and cytoplasmic vacuolization, 293T; assay type: cell-based; conditions: data not shown
[6] = mice, cited from earlier work

Question: What does the source list for `COc1c(C[C@@H](C)OC(=O)Oc2ccc(O)cc2)c2c3c(C[C@@H](C)OC(=O)c4ccccc4)c(OC)c(=O)c4c(O)cc(OC)c(c5c(OC)cc(O)c(c1=O)c52)c43` [calphostin C]?
Answer: IC50 (MCF-7 cells [1]): 13.2 nM; concentration giving cytoplasmic vacuolization equal to MCF-7 and MCF-7TAX cells at 50 nM (MCF-7DOX cells [2]): 300 nM; time of strong increase in percentage of sub-G1 cells after treatment (MCF-7 cells [3]): 8 h; time of strong increase in percentage of sub-G1 cells after treatment (MCF-7DOX cells [4]; MCF-7ADR (so in the source), 2 h light): 8 h; percentage of cells with sub-G1 DNA content versus similarly treated MCF-7 or MCF-7TAX cells (MCF-7DOX cells [4]; MCF-7DOX): significantly lower; induction of death and cytoplasmic vacuolization [5]: induce both death and cytoplasmic vacuolization; clearance rate t1/2 ([6]; 40 mg/kg): 91.3 min; plasma concentration reached without significant cytotoxicity [6]: 2.9 µM

— US7371780B2, “Use of calphostin C to treat drug-resistant tumor cells” (priority 2003, dated 2008)
